≈ marks a conversion by molar mass, not a printed value. Calls of active or inactive are those of the source. No cut-off for these calls is given here.
How the values were obtained:
Staphylococcus aureus [1] = assay: Bactericidal activity against low level levofloxacin and methicillin-resistant Staphylococcus aureus at 2048 ug/ml after 24 hrs by time-kill assay; assay type: functional, organism-based
Staphylococcus aureus [2] = assay: Bactericidal activity against high level levofloxacin and methicillin-resistant Staphylococcus aureus at 4 times MIC after 24 hrs by time-kill assay; assay type: functional, organism-based
Staphylococcus aureus [3] = assay: Antimicrobial activity against high level levofloxacin and methicillin-resistant Staphylococcus aureus JCSC 6764 expressing gyrA Ser84Leu, gyrB Asp437Glu norA T389C and grlA Ser80Phe/Glu84Lys mutants by broth microdilution method; assay type: functional
Staphylococcus aureus [4] = assay: Bactericidal activity against levofloxacin-sensitive and methicillin-resistant Staphylococcus aureus at 4 times MIC after 24 hrs by time-kill assay; assay type: functional, organism-based
Staphylococcus aureus [5] = assay: Antimicrobial activity against low level levofloxacin and methicillin-resistant Staphylococcus aureus JCSC 6767 expressing gyrA Glu84Lys and grlA Ser80Phe mutants by broth microdilution method; assay type: functional
Staphylococcus aureus [6] = assay: Antimicrobial activity against levofloxacin-sensitive and methicillin-resistant Staphylococcus aureus JCSC 6770 by broth microdilution method; assay type: functional
Staphylococcus aureus [7] = assay: Bactericidal activity against high level levofloxacin and methicillin-resistant Staphylococcus aureus at 2048 ug/ml after 24 hrs by time-kill assay; assay type: functional, organism-based
Staphylococcus aureus [8] = assay: Bactericidal activity against high level levofloxacin and methicillin-resistant Staphylococcus aureus at 8 times MIC after 24 hrs by time-kill assay; assay type: functional, organism-based
Staphylococcus aureus [9] = assay: Antimicrobial activity against levofloxacin-sensitive and methicillin-resistant Staphylococcus aureus JCSC 6769 by broth microdilution method; assay type: functional
Staphylococcus aureus [10] = assay: Bactericidal activity against low level levofloxacin and methicillin-resistant Staphylococcus aureus at 16 times MIC after 24 hrs by time-kill assay; assay type: functional, organism-based
Staphylococcus aureus [11] = assay: Bactericidal activity against high level levofloxacin and methicillin-resistant Staphylococcus aureus at 16 times MIC after 24 hrs by time-kill assay; assay type: functional, organism-based
Staphylococcus aureus [12] = assay: Antimicrobial activity against low level levofloxacin and methicillin-resistant Staphylococcus aureus JCSC 6766 expressing gyrA Glu84Lys and grlA Ser80Phe mutants by broth microdilution method; assay type: functional
Staphylococcus aureus [13] = assay: Bactericidal activity against levofloxacin-sensitive and methicillin-resistant Staphylococcus aureus at 8 times MIC after 24 hrs by time-kill assay; assay type: functional, organism-based
Staphylococcus aureus [14] = assay: Bactericidal activity against methicillin-resistant Staphylococcus aureus at 16 times MIC upto 60 mins by time-kill assay; assay type: functional, organism-based
Staphylococcus aureus [15] = assay: Antimicrobial activity against low level levofloxacin and methicillin-resistant Staphylococcus aureus JCSC 6768 expressing gyrA Glu84Lys and grlA Ser80Phe mutants by broth microdilution method; assay type: functional
Staphylococcus aureus [16] = assay: Bactericidal activity against low level levofloxacin and methicillin-resistant Staphylococcus aureus at 16 times MIC after 120 mins by time-kill assay; assay type: functional, organism-based
Staphylococcus aureus [17] = assay: Bactericidal activity against methicillin-resistant Staphylococcus aureus at 4 times MIC upto 60 mins by time-kill assay; assay type: functional, organism-based
Staphylococcus aureus [18] = assay: Bactericidal activity against low level levofloxacin and methicillin-resistant Staphylococcus aureus at 8 times MIC after 24 hrs by time-kill assay; assay type: functional, organism-based
Staphylococcus aureus [19] = assay: Antimicrobial activity against high level levofloxacin and methicillin-resistant Staphylococcus aureus JCSC 6763 expressing gyrA Ser84Leu/Ser85Pro and grlA Ser80Phe/Glu84Lys mutants by broth microdilution method; assay type: functional
Staphylococcus aureus [20] = assay: Antimicrobial activity against high level levofloxacin and methicillin-resistant Staphylococcus aureus JCSC 6765 expressing gyrA Ser84Leu, norA T389C and grlA Ser80Phe/Glu84Lys mutants by broth microdilution method; assay type: functional
Staphylococcus aureus [21] = assay: Bactericidal activity against low level levofloxacin and methicillin-resistant Staphylococcus aureus at 4 times MIC after 120 mins by time-kill assay; assay type: functional, organism-based
Staphylococcus aureus [22] = assay: Bactericidal activity against methicillin-resistant Staphylococcus aureus at 8 times MIC upto 60 mins by time-kill assay; assay type: functional, organism-based
Staphylococcus aureus [23] = assay: Bactericidal activity against levofloxacin-sensitive and methicillin-resistant Staphylococcus aureus at 2048 ug/ml after 24 hrs by time-kill assay; assay type: functional, organism-based
Staphylococcus aureus [24] = assay: Antimicrobial activity against levofloxacin-sensitive and methicillin-resistant Staphylococcus aureus JCSC 6822 harboring mutation in norA gene by broth microdilution method; assay type: functional
Staphylococcus aureus [25] = assay: Bactericidal activity against low level levofloxacin and methicillin-resistant Staphylococcus aureus at 4 times MIC after 24 hrs by time-kill assay; assay type: functional, organism-based
Staphylococcus aureus [26] = assay: Bactericidal activity against low level levofloxacin and methicillin-resistant Staphylococcus aureus at 8 times MIC after 120 mins by time-kill assay; assay type: functional, organism-based
Staphylococcus aureus [27] = assay: Bactericidal activity against levofloxacin-sensitive and methicillin-resistant Staphylococcus aureus at 16 times MIC after 24 hrs by time-kill assay; assay type: functional, organism-based

SMILES	Activity (Staphylococcus aureus [1])	Activity (Staphylococcus aureus [2])	MIC (Staphylococcus aureus [3]) [µg/mL]	Activity (Staphylococcus aureus [4])	MIC (Staphylococcus aureus [5]) [µg/mL]	MIC (Staphylococcus aureus [6]) [µg/mL]	Activity (Staphylococcus aureus [7])	Activity (Staphylococcus aureus [8])	MIC (Staphylococcus aureus [9]) [µg/mL]	Activity (Staphylococcus aureus [10])	Activity (Staphylococcus aureus [11])	MIC (Staphylococcus aureus [12]) [µg/mL]	Activity (Staphylococcus aureus [13])	Activity (Staphylococcus aureus [14])	MIC (Staphylococcus aureus [15]) [µg/mL]	Activity (Staphylococcus aureus [17])	Activity (Staphylococcus aureus [18])	MIC (Staphylococcus aureus [19]) [µg/mL]	MIC (Staphylococcus aureus [20]) [µg/mL]	MIC (Staphylococcus aureus [24]) [µg/mL]	other results
COc1c(N2CCNC(C)C2)c(F)cc2c(=O)c(C(=O)O)cn(C3CC3)c12 (stereo not given) [GATIFLOXACIN]	Active	Active	32 (≈ 85.2 µM)	Active	2 (≈ 5.33 µM)	0.125 (≈ 0.333 µM)	Active	Active	0.125 (≈ 0.333 µM)	Active	Active	2 (≈ 5.33 µM)	Active	inactive	2 (≈ 5.33 µM)	inactive	Active	128 (≈ 341 µM)	16 (≈ 42.6 µM)	0.125 (≈ 0.333 µM)	Activity (Staphylococcus aureus [16]): Active; Activity (Staphylococcus aureus [21]): Active; Activity (Staphylococcus aureus [22]): inactive; Activity (Staphylococcus aureus [23]): Active; Activity (Staphylococcus aureus [25]): Active; Activity (Staphylococcus aureus [26]): Active; Activity (Staphylococcus aureus [27]): Active
C[C@H]1COc2c(N3CCN(C)CC3)c(F)cc3c(=O)c(C(=O)O)cn1c23.C[C@H]1COc2c(N3CCN(C)CC3)c(F)cc3c(=O)c(C(=O)O)cn1c23.O [LEVOFLOXACIN]	Active	Active	256	Active	8	0.25	Active	Active	0.5	Active	Active	8	Active	inactive	4	inactive	Active	512	64	0.25	Activity (Staphylococcus aureus [22]): inactive; Activity (Staphylococcus aureus [23]): Active; Activity (Staphylococcus aureus [25]): Active; Activity (Staphylococcus aureus [27]): Active
Cc1onc(-c2ccccc2)c1C(=O)N[C@@H]1C(=O)N2[C@@H]1SC(C)(C)[C@@H]2C(=O)O [OXACILLIN]	–	–	512 (≈ 1280 µM)	–	256 (≈ 638 µM)	256 (≈ 638 µM)	–	–	512 (≈ 1280 µM)	–	–	512 (≈ 1280 µM)	–	–	256 (≈ 638 µM)	–	–	512 (≈ 1280 µM)	256 (≈ 638 µM)	128 (≈ 319 µM)	–

Source: ChEMBL document CHEMBL1275457, “Postantibiotic effects and bactericidal activities of levofloxacin and gatifloxacin at concentrations simulating those of topical ophthalmic administration against fluoroquinolone-resistant and fluoroquinolone-sensitive methicillin-resistant Staphylococcus aureus strains” (2008)
